Test results taken from patent US20050042209A1, “MUC1 extracellular domain and cancer treatment compositions and methods derived therefrom” (priority 2000, published 2005).
Where two headings read alike, the source gives them in different places. d = 2'-deoxy (DNA); r = 2'-OH (RNA)

What was measured:
MUC1 [1] = settings: for MUC1 protein (immunoblot): 0.8 μM
Experimental: Cell Culture: Human MCF-7 breast carcinoma and HeLa cervical carcinoma cella (obtained form the ATCC, Manassas, Va.) were grown in DMEM (high glucose; Mediatech, Cellgrow) supplemented with 10% heat-inactivated fetal calf serum (FCS) and 2 mM L-glutamate.
Immunoblot analysis: Cells were lysed in ice-cold lysis buffer (20 mM Tris-HCl, pH 8.0, 150 mM NaCl, 1% Triton-X-100, 1 mM phenylsulfonyl fluoride, 1 mM DTT, 10 μgm/ml aprotinin) for 30 min. Lysates were cleared by centrifugation for 20 min. at 4° C. as described (Yin et al, 2001). Proteins were separated by SDS-PAGE, transferred to nitrocellulose and probed with anti-DF3/MUC1 (Kufe, U.S. Pat. No. 5,506,34) or anti-β-actin (Sigma). The antigen-antibody complexes were visualized by enhanced chemiluminescence (ECL; Amersham Life Sciences).
CDDO downregulates MUC1 expression: MUC1-positive cells were treated with CDDO at concentrations of 1, 3 and 5 μM.

[2] = test system: intrinsic apoptotic pathway; assay: Activation of the intrinsic apoptotic pathway in 3Y1 cells; assay type: cell-based, Rat; settings: for mitochondrial transmembrane potential: 10 mM ara-C
Experimental: (§1) Cell culture. Rat 3Y1 fibroblasts stably expressing the empty vector or full-length MUC1 (19) were cultured in Dulbecco's modified Eagle's medium containing 10% heat-inactivated fetal calf serum, 100 units/ml penicillin, […] streptomycin and 2 mM L-glutamine. Cells were treated with 25 mM LY294002 (Sigma), 10 mM 1-b-D-arabinofuranosycyltosine (ara-C; Sigma) or 50 mM gemcitabine (Eli Lilly).
Immunoblot analysis. Whole cell lysates and cytoplasmic fractions were prepared from subconfluent cells as described (Li et all., 1998; Li et al., 2001).
Assessment of mitochondrial transmembrane potential. Cells were incubated with 50 ng/ml Rhodamine 123 (Molecular Probes, Eugene, Oreg.) for 15 min at 37° C. After washing with PBS, samples were analyzed by flow cytometry using 488 nm excitation and measurement of emission through a 575/26 (ethidium) bandpass filter.
Isolation of mitochondria. Mitochondria were purified as described (Kumar et al., 2003).
MUC1 blocks activation of the intrinsic apoptotic pathway. Increases in phospho-Bad and Bcl-xL protect against apoptosis induced by activation of the intrinsic mitochondrial pathway (Van Heiden et al., 1997; Datta et al., 1995). To assess the effects of MUC1 on chemosensitivity, we treated cells with ara-C, an antimetabolite that induces release of mitochondrial cytochrome c and thereby apoptosis (Major et al., 1981; Kojima et al., 1998). Exposure of 3Y1/vector-A and -B cells to ara-C was associated with a decrease in mitochondrial transmembrane potential (FIG. 3A). […] Moreover, caspase-3-mediated cleavage of PKCd (Emoto et at., 1995) was attenuated in the MUC1 expressing cells. […] These findings indicate that MUC1 attenuates ara-C-induced activation of the intrinsic apoptotic pathway.

3Y1 fibroblasts = assay: Apoptosis assays (TUNEL, sub-G1 DNA) in 3Y1 cells; assay type: cell-based, Rat
Experimental: as §1
Apoptosis assays. For TUNEL staining, cells were fixed in 4% paraformaldehyde, permeabilized in 0.1% Triton X-100/0.1% sodium citrate for 2 min and processed according to the manufacturer's instructions (In Situ Cell Death detection kit, fluorescein; Roche). For analysis of sub-G1 DNA, cells were washed with PBS, fixed in 70% ethanol, incubated with 2.5 mg/ml propidium iodide and 50 mg/ml RNase, and then monitored by FACScan.
MUC1 attenuates ara-C- and gemcitabine-induced apoptosis. To determine if MUC1 affects induction of apoptosis by ara-C, the 3Y1/vector and 3Y1/MUC1 cells were analyzed for TUNEL staining and sub-G1 DNA. […] Moreover, ara-C treatment of 3Y1/vector cells was associated with over 40% apoptosis as determined by sub-G1 DNA analysis.
To extend these observations to other anti-cancer agents, we treated the 3Y1/vector and 3Y1/MUC1 cells with gemcitabine. As determined by analysis of sub-G1 DNA and as found with ara-C, gemcitabine-induced apoptosis was attenuated in 3Y1/MUC1, as compared to 3Y1/vector, cells.

MUC1 [3] = assay: MUC1 induction by oxidative and genotoxic stress (immunoblot); settings: MCF-7 cells
Experimental: To determine whether MUC1 is induced in response to oxidative stress, MCF-7 cells were treated with hydrogen peroxide. Cell lysates were analyzed by immunoblotting with anti-DF3/MUC1 antibody. Lysates were prepared by suspending MCF-7 cells in lysis buffer (50 mM Tris, pH 7.6, 150 mM NaCl, 1 mM PMSF, 3 mM NaF, 1 mM sodium vandate, 1 mM DTT with protease inhibitors and either 1% NP-40 or 1% Brij-96) for 30 min. on ice. Lysates were cleared by centifugation and equal amounts of proteins were resolved by SDS-PAGE. Proteins were then transferred to nitrocellulose filters, blocked by incubation in 5% non-fat dry milk in PBS with 0.05% Tween-20 and probed with anti-MUC1 antibody (Pandey et al., 1995). Anti-actin was used as a control.
Similar studies were performed with genotoxic agents.

[4] = test system: ZR-75-1 breast carcinoma cells; assay: Apoptosis assay (sub-G1 DNA) in ZR-75-1 cells; assay type: cell-based, human; settings: ZR-75-1 cells; 10 and 50 μM etoposide
Experimental: Apoptosis assay: Apoptotic cells were quantified by analysis of sub-G1 DNA. Cells were harvested, washed with PBS, fixed with 80% ethanol, and incubated in PBS containing 20 ng/ml RNase (Roche) for 60 min at 37° C. Cells were stained with 40 μg/ml propidium iodide (Sigma) for 30 min at room temperature in the dark. DNA content was analyzed by flow cytometry (EPICS XL-MCL, Coulter Corp.).
As a control, stable transfection of ZR-75-1 cells with the empty reterovirus had no effect on MUC1 expression. […] By contrast, CDDP treatment of ZR-75-1/MUC1siRNA cells was associated with a clear loss of ΔΨm. In concert with these findings, cytochrome C release, as measured by immunoblot, was attenuated in CDDP-treated ZR-75-1/vector cells, as compared to ZR-75-1/MUC1siRNA cells. […] Treatment of ZR-75-1/vector cells with CDDP was associated with the induction of approximately 25% apoptosis.

HCT116 cells = assay: Apoptosis (sub-G1 DNA, TUNEL) in HCT116 transfectants; assay type: cell-based, human; settings: HCT116/vector cells
Experimental: Methods. Apoptotic cells were quantified by analysis of sub-G1 DNA and TUNEL staining. To assess sub-G1 DNA content, cells were harvested, washed with PBS, fixed with 80% ethanol, and incubated in PBS containing 20 ng/ml RNase (Roche) for 60 min at 37° C. Cells were then stained with […] propidium iodide (Sigma) for 30 min at room temperature in the dark. DNA content was analyzed by flow cytometry (EPICS XL-MCL, Coulter Corp.). Apoptotic cells with DNA fragmentation were detected by staining with the In Situ cell death detection kit (TUNEL; Roche Applied Science) and visualized by confocal microscopy (ZEISS LSM510). After staining, cells were analyzed by flow cytometry. Other experimental procedures and methods were as described in Example 15.
Results. To determine if MUC1 affects the induction of apoptosis by CDDP, cells were analyzed for sub-G1 DNA content. […] Stimulation of cell surface death receptors with TNF-α or the TNF-related apoptosis inducing factor TRAIL is associated with activation of the extrinsic apoptotic pathway. To determine if MUC1 affects death receptor-induced apoptosis, HCT116 cells were treated with TNF-α.

MUC1 [5] = assay: Western blot of MUC1 after siRNA transfection; assay type: cell-based, human; settings: MCF-7 cells; siRNA 0.2 micromolar; FIG. 5, FIG. 6
Description: Cell Culture: Human MCF-7 breast cancer cells were maintained in DMEM supplemented with 10% heat inactivated fetal bovine serum (FBS) and 1% penicillin-streptomycin mixture. Human A549 non-small cell lung cancer cells were maintained in RPMI1640 medium supplemented with 10% FBS and 1% penicillin-streptomycin mixture.
siRNAs: Five different double stranded anti-MUC1 siRNAs were designed: one against the target sequence SEQ ID NO: 63, i.e., […], with sense and antisense strands as shown in SEQ ID NO: 64 and SEQ ID NO: 65 respectively (hereinafter siRNA #1); one against the target sequence SEQ ID NO: 42, i.e., […], with sense and antisense strands as shown in SEQ ID NO: 43 and SEQ ID NO: 44 respectively (hereinafter siRNA #2); one against the target sequence SEQ ID NO: 21, i.e., […], with sense and antisense strands as shown in SEQ ID NO: 22 and SEQ ID NO: 23 respectively (hereinafter siRNA #3); one against the target sequence SEQ ID NO: 66, i.e., […], with sense and antisense strands as shown by SEQ ID NO: 67 and SEQ ID NO: 68 respectively (hereinafter siRNA #4); and one against target sequence SEQ ID NO: 69, i.e., […], with sense and antisense strands as shown by SEQ ID NO: 70 and SEQ ID NO: 71 respectively (hereinafter siRNA #5). A control siRNA was designed against the scrambled target SEQ ID NO: 72 with sense and antisense strands as shown by SEQ ID NO: 73 and SEQ ID NO: 74 respectively. Each RNA sense oligonucleotide (50 μM) was combined with equal volume of antisense oligonucleotide (50 μM) in an annealing buffer (20 mM KCl, 6 mM HEPES-KOH, pH 7.5, 0.2 mM MgCl2). The solution was incubated for 1 min at 90° C. to denature secondary structure, and placed at 37° C. for 1 hour to anneal the complementary strands. The subsequent double stranded RNAs were used as the anti-MUC1 siRNA.
Transfection: Cells (1-3×10^5 cells/well) were plated in 6-well plates in growth medium without antibiotics, and incubated overnight. After washing cells once with Opti-MEM I (Invitrogen), 800 μL of fresh Opti-MEM I and 200 μL of the Reagent (Invitrogen) were added to the cultured cells. Four hours later, 300 μL of FBS was added to the cultured cells.
Western Blot Analysis: Cell were passed a day before transfection. MUC1 siRNA (0.2 micromolar) was added with oligofectamine to cells in 0% FBS. Four hours later serum was added to a final concentration of 10%. After various time intervals (48 h, 72 h and 96 h), cells were washed and total cell lysates were prepared. Proteins were separated from cell lysates by SDS-PAGE, transferred to nitrocellulose and analyzed by immunoblotting with anti-DF3 antibodies.

Compound: 2-propyl-imadazole CDDO [CDDO-Pr-Im]
- MUC1 protein (immunoblot) (MUC1 [1]): decreased levels

Compound: CC1(C)CC[C@]2(C(=O)n3ccnc3)CC[C@]3(C)[C@H](C(=O)C=C4[C@@]5(C)C=C(C#N)C(=O)C(C)(C)[C@@H]5CC[C@]43C)[C@@H]2C1 [CDDO-Im, imadzole CDDO]
- MUC1 protein (immunoblot) (MUC1 [1]): decreased levels

Compound: COC(=O)[C@]12CCC(C)(C)C[C@H]1[C@H]1C(=O)C=C3[C@@]4(C)C=C(C#N)C(=O)C(C)(C)[C@@H]4CC[C@@]3(C)[C@]1(C)CC2 [CDDO-Me, CDDO methyl ester]
- MUC1 expression (immunoblot) (MUC1 [1]; 1 μM, 12 hr and 24 hr): detectable at 12 hr and nearly complete at 24 hr

Compound: N[C@@H](CCC(=O)N[C@@H](CS)C(=O)NCC(=O)O)C(=O)O [GSH, glutathione]
- CDDO-, CDDO-Me-, CDDO-Im- and CDDO-Pr-Im-induced decreases in MUC1 (MUC1 [1]; cells treated with antioxidant): blocked the effects

Compound: Nc1ccn([C@@H]2O[C@H](CO)[C@@H](O)[C@@H]2O)c(=O)n1 [ara-C, 1-b-D-arabinofuranosycyltosine]
- mitochondrial transmembrane potential ([2]; 3Y1/MUC1 cells): apparent increase
- activation of caspase-9 ([2]; 3Y1/MUC1 compared to 3Y1/vector cells): attenuated
- release of cytochrome c into the cytosol ([2]; 3Y1/vector and 3Y1/MUC1 cells): release of cytochrome c into the cytosol of 3Y1/vector, and not 3Y1/MUC1
- mitochondrial transmembrane potential ([2]; 3Y1/vector-A and -B cells): decrease
- caspase-3-mediated cleavage of PKCd ([2]; MUC1 expressing cells): attenuated
- ara-C-induced apoptosis (3Y1 fibroblasts; 3Y1/MUC1 cells): significantly attenuated
- apoptosis (sub-G1 DNA analysis) (3Y1 fibroblasts; 3Y1/vector cells): over 40%
- TUNEL staining (3Y1 fibroblasts; 3Y1/vector, but not 3Y1/MUC1, cells): substantial induction

Compound: COc1cccc2c1C(=O)c1c(O)c3c(c(O)c1C2=O)C[C@@](O)(C(C)=O)C[C@@H]3O[C@H]1C[C@H](N)[C@H](O)[C@H](C)O1 [daunorubicin]
- MUC1 expression (immunoblot) (MUC1 [3]): rapid and transient induction

Compound: COc1cc([C@@H]2c3cc4c(cc3[C@@H](O[C@@H]3O[C@@H]5CO[C@@H](C)O[C@H]5[C@H](O)[C@H]3O)[C@H]3COC(=O)[C@H]23)OCO4)cc(OC)c1O [etoposide]
- sensitivity on knocking-down MUC1 expression [4]: increased substantially

Compound: Nc1ccn([C@@H]2O[C@H](CO)[C@@H](O)C2(F)F)c(=O)n1 [gemcitabine]
- gemcitabine-induced apoptosis (sub-G1 DNA) (3Y1 fibroblasts; 3Y1/MUC1 compared to 3Y1/vector cells, 50 mM gemcitabine): attenuated

Compound: TNF-α
- apoptosis (HCT116 cells; TNF-α alone): failed to induce apoptosis
- apoptosis (HCT116 cells; in the presence of cycloheximide (CHX), FIG. 18): induction of HCT116/vector cell apoptosis

Compound: siRNA #3: double stranded anti-MUC1 siRNA, target SEQ ID NO: 21, sense SEQ ID NO: 22, antisense SEQ ID NO: 23 (sense AAGGAGACUUCGGCUGCCCTT; antisense GGGCAGCCGAAGUCUCCUUTT; sugars from the 5' end r19 d2, backbone not given here)
- MUC1 expression at the protein level (immunoblot) (MUC1 [5]): downregulation of MUC1 expression

Compound: siRNA #4: double stranded anti-MUC1 siRNA, target SEQ ID NO: 66, sense SEQ ID NO: 67, antisense SEQ ID NO: 68 (sense GUUCAGUGCCCAGCUCUACTT; antisense GUAGAGCUGGGCACUGAACTT; sugars from the 5' end r19 d2, backbone not given here)
- MUC1 expression at the protein level (immunoblot) (MUC1 [5]): downregulation of MUC1 expression

Compound: siRNA #5: double stranded anti-MUC1 siRNA, target SEQ ID NO: 69, sense SEQ ID NO: 70, antisense SEQ ID NO: 71 (sense GGUUUCUGCAGGUAAUGGUTT; antisense ACCAUUACCUGCAGAAACCTT; sugars from the 5' end r19 d2, backbone not given here)
- MUC1 expression at the protein level (immunoblot) (MUC1 [5]): downregulation of MUC1 expression
